{
  "source": "patent US10945991B2",
  "about": "“Use and pharmaceutical composition for liver fibrosis prevention and/or treatment” (Cojet Biotech Inc., priority 2018, dated 2021)",
  "origin": "cited, not measured here",
  "test_system": "RAW 264.7 cell line",
  "data": [
    {"smiles": "Cc1cc(O)c2c(c1O)OCO2", "note": "[MBDD, 5-methyl-benzol[1,3]dioxole-4,7-diol]", "values": [
      {"measurement": "NO production induced by lipopolysaccharide", "setting": "RAW 264.7 cell line, effect may result from cytotoxicity", "result": "reduce the NO production"},
      {"measurement": "cytotoxicity", "setting": "RAW 264.7 cells", "result": "strong cytotoxicity"}
    ]}
  ]
}
